In patent US10807992B2, “Single enantiomer antiparasitic compounds” (priority 2017, dated 2020):
Read-outs that look alike come from different tables or passages of the source.

Assays:
Aedes aegypti [1] = assay: In vitro contact activity against adult mosquitoes (coated vial)
Method: (§1) Aedes aegypti (Louisiana Biologicals Inc., New Orleans, La.) eggs were allowed to hatch, close, and age between 3-5 days in an environmental chamber at 26° C., 80% humidity with light/dark cycles.
For mosquito assays, an aliquot from each compound stock was added to an acetone/triton solution to achieve the desired top doses for the study. Serial dilutions were conducted from the top dose (i.e. 50 ppm) to achieve the desired titration range for EC50 and EC90 determination. The final DMSO concentration in each test vial was 0.5%. A 459 μL aliquot of each compound formulation was transferred to a vial and vials were immediately placed on an unheated roller unit to allow for an even coating of the vial walls. The vials were loosely capped and allowed to dry for a minimum of four hours in a chemical fume hood.
(§2) For both contact and ingestion assays, five female Aedes aegypti adults were added to each vial or cage. The test vials for contact assays were held in an environmental chamber at 24° C., 80% humidity with light/dark cycles (12 hours each). The cages for mosquito ingestion assays were held in a temperature-controlled artificial feeding apparatus to allow continual access to organic bovine blood containing the desired concentration of compound. Fresh aliquots of compound-spiked bovine blood were provided daily for the duration of the study.
(§3) Mosquitoes showing no movement or mosquitoes that were knocked down were noted as dead. Results from trial 1 and trial 2 contact assays are shown in Tables 12 and 13, respectively and the results from trial 3 mosquito ingestion assay is shown in table 14.
(§4) For the mosquito contact and ingestion assays, each replicate contained 5 mosquitoes. For ease of calculation, the two replicates were added to equal a total of 10 mosquitoes.

Aedes aegypti [2] = assay: In vitro ingestion activity against adult mosquitoes (artificial feeding, bovine blood); conditions: read-out: Mortality % R1 + R2
Method: as §1
For mosquito ingestion tests, serial dilutions of the compound stock were performed using DMSO to achieve the desired range for EC50 and EC90 determination. An aliquot of each compound dilution was added to organic bovine blood with a final DMSO concentration of 0.5% and placed in a temperature-controlled artificial feeding container.
Compounds tested were: the C1 racemate, C1 (R) enantiomer, and the C1 (S) enantiomer. For Trial 3, the C1 (R) enantiomer and the C1 (S) enantiomer were further chiral purified to achieve >99% purity.
as §2
as §3, with “Assessment of mortality/knockdown was performed at various time points between 30 minutes and 24 hours post infestation. Mosquitoes” for “Mosquitoes”
as §4

O=C(CC(F)(F)F)N1CC2(C1)OCc1cc(C3=NSC(c4cc(Cl)c(F)c(Cl)c4)(C(F)(F)F)C3)ccc12 (racemic) [C1 racemate, 1-[6-[5-(3,5-dichloro-4-fluoro-phenyl)-5-(trifluoromethyl)-4H-isothiazol-3-yl]spiro[1H-isobenzofuran-3,3′-azetidine]-1′-yl]-3,3,3-trifluoro-propan-1-one]
71.4%: mortality at 0.049 ppm (Aedes aegypti [2]; 24 h)
20%: mortality at 0.2 µM (Aedes aegypti [1]; 48 h, read-out: % Mortality R1 + R2, Trial 1, contact assay, dose 0.20 μM, 48 hr)
40%: mortality at 0.049 µM (Aedes aegypti [1]; 48 h, read-out: % Mortality R1 + R2, Trial 1, contact assay, dose 0.049 μM, 48 hr) | mortality at 0.2 µM (Aedes aegypti [1]; 48 h, read-out: % Mortality R1 + R2, Trial 2, contact assay, dose 0.20 μM, 48 hr)
90%: mortality at 12.5 µM (Aedes aegypti [1]; 24 h, read-out: % Mortality R1 + R2, Trial 1, contact assay, dose 12.5 μM, 24 hr) | mortality at 3.125 µM (Aedes aegypti [1]; 48 h, read-out: % Mortality R1 + R2, Trial 1, contact assay, dose 3.125 μM, 48 hr)
70%: mortality at 3.125 µM (Aedes aegypti [1]; 24 h, read-out: % Mortality R1 + R2, Trial 2, contact assay, dose 3.125 μM, 24 hr)
80%: mortality at 50 µM (Aedes aegypti [1]; 6 h, read-out: % Mortality R1 + R2, Trial 1, contact assay, dose 50 μM, 6 hr) | mortality at 12.5 µM (Aedes aegypti [1]; 12 h, read-out: % Mortality R1 + R2, Trial 2, contact assay, dose 12.5 μM, 12 hr)
0%: mortality at 0.049 µM (Aedes aegypti [1]; 0.5 h, read-out: % Mortality R1 + R2, Trial 1, contact assay, dose 0.049 μM, 0.5 Hr) | mortality at 0.2 µM (Aedes aegypti [1]; 0.5 h, read-out: % Mortality R1 + R2, Trial 1, contact assay, dose 0.20 μM, 0.5 Hr) | mortality at 0.78 µM (Aedes aegypti [1]; 0.5 h, read-out: % Mortality R1 + R2, Trial 1, contact assay, dose 0.78 μM, 0.5 Hr) | mortality at 3.125 µM (Aedes aegypti [1]; 0.5 h, read-out: % Mortality R1 + R2, Trial 1, contact assay, dose 3.125 μM, 0.5 Hr) | mortality at 12.5 µM (Aedes aegypti [1]; 0.5 h, read-out: % Mortality R1 + R2, Trial 1, contact assay, dose 12.5 μM, 0.5 Hr) | mortality at 50 µM (Aedes aegypti [1]; 0.5 h, read-out: % Mortality R1 + R2, Trial 1, contact assay, dose 50 μM, 0.5 Hr) | mortality at 0.049 µM (Aedes aegypti [1]; 0.5 h, read-out: % Mortality R1 + R2, Trial 2, contact assay, dose 0.049 μM, 0.5 Hr) | mortality at 0.2 µM (Aedes aegypti [1]; 0.5 h, read-out: % Mortality R1 + R2, Trial 2, contact assay, dose 0.20 μM, 0.5 Hr) | mortality at 0.78 µM (Aedes aegypti [1]; 0.5 h, read-out: % Mortality R1 + R2, Trial 2, contact assay, dose 0.78 μM, 0.5 Hr) | mortality at 3.125 µM (Aedes aegypti [1]; 0.5 h, read-out: % Mortality R1 + R2, Trial 2, contact assay, dose 3.125 μM, 0.5 Hr) | mortality at 12.5 µM (Aedes aegypti [1]; 0.5 h, read-out: % Mortality R1 + R2, Trial 2, contact assay, dose 12.5 μM, 0.5 Hr) | mortality at 50 µM (Aedes aegypti [1]; 0.5 h, read-out: % Mortality R1 + R2, Trial 2, contact assay, dose 50 μM, 0.5 Hr) | mortality at 0.049 µM (Aedes aegypti [1]; 1 h, read-out: % Mortality R1 + R2, Trial 1, contact assay, dose 0.049 μM, 1 hr) | mortality at 0.2 µM (Aedes aegypti [1]; 1 h, read-out: % Mortality R1 + R2, Trial 1, contact assay, dose 0.20 μM, 1 hr) | mortality at 0.78 µM (Aedes aegypti [1]; 1 h, read-out: % Mortality R1 + R2, Trial 1, contact assay, dose 0.78 μM, 1 hr) | mortality at 3.125 µM (Aedes aegypti [1]; 1 h, read-out: % Mortality R1 + R2, Trial 1, contact assay, dose 3.125 μM, 1 hr) | mortality at 12.5 µM (Aedes aegypti [1]; 1 h, read-out: % Mortality R1 + R2, Trial 1, contact assay, dose 12.5 μM, 1 hr) | mortality at 50 µM (Aedes aegypti [1]; 1 h, read-out: % Mortality R1 + R2, Trial 1, contact assay, dose 50 μM, 1 hr) | mortality at 0.049 µM (Aedes aegypti [1]; 1 h, read-out: % Mortality R1 + R2, Trial 2, contact assay, dose 0.049 μM, 1 hr) | mortality at 0.2 µM (Aedes aegypti [1]; 1 h, read-out: % Mortality R1 + R2, Trial 2, contact assay, dose 0.20 μM, 1 hr) | mortality at 0.78 µM (Aedes aegypti [1]; 1 h, read-out: % Mortality R1 + R2, Trial 2, contact assay, dose 0.78 μM, 1 hr) | mortality at 3.125 µM (Aedes aegypti [1]; 1 h, read-out: % Mortality R1 + R2, Trial 2, contact assay, dose 3.125 μM, 1 hr) | mortality at 12.5 µM (Aedes aegypti [1]; 1 h, read-out: % Mortality R1 + R2, Trial 2, contact assay, dose 12.5 μM, 1 hr) | mortality at 50 µM (Aedes aegypti [1]; 1 h, read-out: % Mortality R1 + R2, Trial 2, contact assay, dose 50 μM, 1 hr) | mortality at 0.049 µM (Aedes aegypti [1]; 6 h, read-out: % Mortality R1 + R2, Trial 1, contact assay, dose 0.049 μM, 6 hr) | mortality at 0.2 µM (Aedes aegypti [1]; 6 h, read-out: % Mortality R1 + R2, Trial 1, contact assay, dose 0.20 μM, 6 hr) | mortality at 0.78 µM (Aedes aegypti [1]; 6 h, read-out: % Mortality R1 + R2, Trial 1, contact assay, dose 0.78 μM, 6 hr) | mortality at 3.125 µM (Aedes aegypti [1]; 6 h, read-out: % Mortality R1 + R2, Trial 1, contact assay, dose 3.125 μM, 6 hr) | mortality at 12.5 µM (Aedes aegypti [1]; 6 h, read-out: % Mortality R1 + R2, Trial 1, contact assay, dose 12.5 μM, 6 hr) | mortality at 0.049 µM (Aedes aegypti [1]; 6 h, read-out: % Mortality R1 + R2, Trial 2, contact assay, dose 0.049 μM, 6 hr) | mortality at 0.2 µM (Aedes aegypti [1]; 6 h, read-out: % Mortality R1 + R2, Trial 2, contact assay, dose 0.20 μM, 6 hr) | mortality at 0.78 µM (Aedes aegypti [1]; 6 h, read-out: % Mortality R1 + R2, Trial 2, contact assay, dose 0.78 μM, 6 hr) | mortality at 3.125 µM (Aedes aegypti [1]; 6 h, read-out: % Mortality R1 + R2, Trial 2, contact assay, dose 3.125 μM, 6 hr) | mortality at 0.049 µM (Aedes aegypti [1]; 12 h, read-out: % Mortality R1 + R2, Trial 1, contact assay, dose 0.049 μM, 12 hr) | mortality at 0.2 µM (Aedes aegypti [1]; 12 h, read-out: % Mortality R1 + R2, Trial 1, contact assay, dose 0.20 μM, 12 hr) | mortality at 0.78 µM (Aedes aegypti [1]; 12 h, read-out: % Mortality R1 + R2, Trial 1, contact assay, dose 0.78 μM, 12 hr) | mortality at 3.125 µM (Aedes aegypti [1]; 12 h, read-out: % Mortality R1 + R2, Trial 1, contact assay, dose 3.125 μM, 12 hr) | mortality at 12.5 µM (Aedes aegypti [1]; 12 h, read-out: % Mortality R1 + R2, Trial 1, contact assay, dose 12.5 μM, 12 hr) | mortality at 0.049 µM (Aedes aegypti [1]; 12 h, read-out: % Mortality R1 + R2, Trial 2, contact assay, dose 0.049 μM, 12 hr) | mortality at 0.2 µM (Aedes aegypti [1]; 12 h, read-out: % Mortality R1 + R2, Trial 2, contact assay, dose 0.20 μM, 12 hr) | mortality at 0.78 µM (Aedes aegypti [1]; 12 h, read-out: % Mortality R1 + R2, Trial 2, contact assay, dose 0.78 μM, 12 hr) | mortality at 3.125 µM (Aedes aegypti [1]; 12 h, read-out: % Mortality R1 + R2, Trial 2, contact assay, dose 3.125 μM, 12 hr) | mortality at 0.049 µM (Aedes aegypti [1]; 24 h, read-out: % Mortality R1 + R2, Trial 1, contact assay, dose 0.049 μM, 24 hr) | mortality at 0.2 µM (Aedes aegypti [1]; 24 h, read-out: % Mortality R1 + R2, Trial 1, contact assay, dose 0.20 μM, 24 hr) | mortality at 0.78 µM (Aedes aegypti [1]; 24 h, read-out: % Mortality R1 + R2, Trial 1, contact assay, dose 0.78 μM, 24 hr) | mortality at 3.125 µM (Aedes aegypti [1]; 24 h, read-out: % Mortality R1 + R2, Trial 1, contact assay, dose 3.125 μM, 24 hr) | mortality at 0.049 µM (Aedes aegypti [1]; 24 h, read-out: % Mortality R1 + R2, Trial 2, contact assay, dose 0.049 μM, 24 hr) | mortality at 0.2 µM (Aedes aegypti [1]; 24 h, read-out: % Mortality R1 + R2, Trial 2, contact assay, dose 0.20 μM, 24 hr) | mortality at 0.78 µM (Aedes aegypti [1]; 24 h, read-out: % Mortality R1 + R2, Trial 2, contact assay, dose 0.78 μM, 24 hr) | mortality at 0.049 µM (Aedes aegypti [1]; 48 h, read-out: % Mortality R1 + R2, Trial 2, contact assay, dose 0.049 μM, 48 hr) | mortality at 0.78 µM (Aedes aegypti [1]; 48 h, read-out: % Mortality R1 + R2, Trial 2, contact assay, dose 0.78 μM, 48 hr) | mortality at 0.049 ppm (Aedes aegypti [2]) | mortality at 0.2 ppm (Aedes aegypti [2])
10%: mortality at 12.5 µM (Aedes aegypti [1]; 6 h, read-out: % Mortality R1 + R2, Trial 2, contact assay, dose 12.5 μM, 6 hr)
50%: mortality at 0.78 ppm (Aedes aegypti [2])
100%: mortality at 50 µM (Aedes aegypti [1]; 6 h, read-out: % Mortality R1 + R2, Trial 2, contact assay, dose 50 μM, 6 hr) | mortality at 50 µM (Aedes aegypti [1]; 12 h, read-out: % Mortality R1 + R2, Trial 1, contact assay, dose 50 μM, 12 hr) | mortality at 50 µM (Aedes aegypti [1]; 12 h, read-out: % Mortality R1 + R2, Trial 2, contact assay, dose 50 μM, 12 hr) | mortality at 50 µM (Aedes aegypti [1]; 24 h, read-out: % Mortality R1 + R2, Trial 1, contact assay, dose 50 μM, 24 hr) | mortality at 12.5 µM (Aedes aegypti [1]; 24 h, read-out: % Mortality R1 + R2, Trial 2, contact assay, dose 12.5 μM, 24 hr) | mortality at 50 µM (Aedes aegypti [1]; 24 h, read-out: % Mortality R1 + R2, Trial 2, contact assay, dose 50 μM, 24 hr) | mortality at 12.5 µM (Aedes aegypti [1]; 48 h, read-out: % Mortality R1 + R2, Trial 1, contact assay, dose 12.5 μM, 48 hr) | mortality at 50 µM (Aedes aegypti [1]; 48 h, read-out: % Mortality R1 + R2, Trial 1, contact assay, dose 50 μM, 48 hr) | mortality at 3.125 µM (Aedes aegypti [1]; 48 h, read-out: % Mortality R1 + R2, Trial 2, contact assay, dose 3.125 μM, 48 hr) | mortality at 12.5 µM (Aedes aegypti [1]; 48 h, read-out: % Mortality R1 + R2, Trial 2, contact assay, dose 12.5 μM, 48 hr) | mortality at 50 µM (Aedes aegypti [1]; 48 h, read-out: % Mortality R1 + R2, Trial 2, contact assay, dose 50 μM, 48 hr) | mortality at 0.2 ppm (Aedes aegypti [2]; 24 h) | mortality at 0.78 ppm (Aedes aegypti [2]; 24 h) | mortality at 3.125 ppm (Aedes aegypti [2]; 24 h) | mortality at 12.5 ppm (Aedes aegypti [2]; 24 h) | mortality at 50 ppm (Aedes aegypti [2]; 24 h) | mortality at 3.125 ppm (Aedes aegypti [2]) | mortality at 12.5 ppm (Aedes aegypti [2]) | mortality at 50 ppm (Aedes aegypti [2])
30%: mortality at 0.78 µM (Aedes aegypti [1]; 48 h, read-out: % Mortality R1 + R2, Trial 1, contact assay, dose 0.78 μM, 48 hr)
